Measurements taken from PMC3005334 (Cell, 2010).

Experiments:
Erg4 = Erg4 (Saccharomyces cerevisiae, UniProt P25340); type: binding; details: in vivo bound, LC-MS; natural synthesizing enzyme
Ypk1, Hal5, and Rck2 = assay: In vitro small metabolite-protein binding assay; set-up: species or system Saccharomyces cerevisiae; details: fixed amount of protein; indicates specific binding
103 protein kinases = assay: Affinity purification LC-MS profiling of the panel of yeast protein kinases; type: binding, Saccharomyces cerevisiae; details: of 103 kinases analyzed
Ypk1 [1] = target: T1, Ypk1 (Saccharomyces cerevisiae, UniProt P12688); assay: In vitro kinase activity assay; type: biochemical
T1 sequence (P12688 1-680): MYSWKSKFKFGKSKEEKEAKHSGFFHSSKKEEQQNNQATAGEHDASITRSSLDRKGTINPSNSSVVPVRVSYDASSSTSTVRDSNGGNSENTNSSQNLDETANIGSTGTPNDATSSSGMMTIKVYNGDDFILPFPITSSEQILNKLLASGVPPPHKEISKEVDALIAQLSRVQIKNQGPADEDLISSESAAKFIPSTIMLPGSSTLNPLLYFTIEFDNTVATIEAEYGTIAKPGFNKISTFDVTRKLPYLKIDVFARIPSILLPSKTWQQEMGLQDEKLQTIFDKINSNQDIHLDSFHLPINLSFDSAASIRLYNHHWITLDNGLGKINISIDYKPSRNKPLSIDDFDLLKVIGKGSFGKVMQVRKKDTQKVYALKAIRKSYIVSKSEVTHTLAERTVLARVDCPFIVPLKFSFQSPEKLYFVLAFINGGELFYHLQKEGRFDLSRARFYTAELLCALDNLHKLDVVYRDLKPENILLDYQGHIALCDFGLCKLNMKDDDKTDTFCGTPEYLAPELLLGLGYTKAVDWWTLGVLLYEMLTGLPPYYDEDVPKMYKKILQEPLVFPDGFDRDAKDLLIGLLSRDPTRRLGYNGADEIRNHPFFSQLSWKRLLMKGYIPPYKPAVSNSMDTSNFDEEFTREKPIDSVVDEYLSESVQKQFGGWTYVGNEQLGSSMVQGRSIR

[2] = test system: 21 ergosterol biosynthetic proteins (Erg proteins); details: of 21 Erg enzymes, above the control
Ypk1 [3] = target: T1, Ypk1; assay: Affinity purification of tagged protein kinase and LC-MS of bound metabolites; type: binding; details: identified against pure standards
Kin4 = target: T2, Kin4 (Saccharomyces cerevisiae, UniProt Q01919); assay: as above; type: binding; details: 379.337 amu at 10.98 min
T2 sequence (Q01919 1-800): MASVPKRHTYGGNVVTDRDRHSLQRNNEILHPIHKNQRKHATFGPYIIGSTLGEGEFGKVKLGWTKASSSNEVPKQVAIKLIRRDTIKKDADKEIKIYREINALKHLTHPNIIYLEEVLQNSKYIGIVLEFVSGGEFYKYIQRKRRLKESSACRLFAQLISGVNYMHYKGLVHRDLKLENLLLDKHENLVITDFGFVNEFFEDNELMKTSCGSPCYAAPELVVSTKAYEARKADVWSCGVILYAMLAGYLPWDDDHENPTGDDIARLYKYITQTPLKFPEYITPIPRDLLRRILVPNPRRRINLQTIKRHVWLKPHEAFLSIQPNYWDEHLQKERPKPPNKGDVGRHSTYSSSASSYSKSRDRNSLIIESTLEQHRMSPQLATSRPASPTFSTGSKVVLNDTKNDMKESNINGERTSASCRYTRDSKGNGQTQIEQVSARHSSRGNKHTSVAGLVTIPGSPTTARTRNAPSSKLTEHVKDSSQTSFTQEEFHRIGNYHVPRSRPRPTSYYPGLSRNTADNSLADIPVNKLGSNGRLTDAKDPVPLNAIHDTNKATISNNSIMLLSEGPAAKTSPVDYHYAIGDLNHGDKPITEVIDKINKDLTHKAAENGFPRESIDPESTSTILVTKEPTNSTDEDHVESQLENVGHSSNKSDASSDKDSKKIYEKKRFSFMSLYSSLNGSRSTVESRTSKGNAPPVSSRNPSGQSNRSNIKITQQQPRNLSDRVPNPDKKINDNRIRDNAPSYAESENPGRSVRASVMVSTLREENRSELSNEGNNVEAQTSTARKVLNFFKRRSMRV

Erg4, sequence (P25340 whole entry): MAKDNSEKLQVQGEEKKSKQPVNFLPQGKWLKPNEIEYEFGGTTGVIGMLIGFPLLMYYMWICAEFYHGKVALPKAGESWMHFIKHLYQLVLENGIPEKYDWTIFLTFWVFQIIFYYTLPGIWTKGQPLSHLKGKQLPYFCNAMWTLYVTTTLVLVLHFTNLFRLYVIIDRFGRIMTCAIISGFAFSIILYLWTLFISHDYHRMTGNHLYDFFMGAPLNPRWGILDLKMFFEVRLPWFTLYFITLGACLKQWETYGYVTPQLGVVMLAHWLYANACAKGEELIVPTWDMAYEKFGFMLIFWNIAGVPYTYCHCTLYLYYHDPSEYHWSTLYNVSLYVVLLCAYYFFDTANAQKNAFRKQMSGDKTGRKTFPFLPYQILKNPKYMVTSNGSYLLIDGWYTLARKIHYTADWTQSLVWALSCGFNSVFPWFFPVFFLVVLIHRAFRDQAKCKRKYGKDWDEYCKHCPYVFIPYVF

For CC(C)[C@@H](C)/C=C/[C@@H](C)[C@H]1CC[C@H]2C3=CC=C4C[C@@H](O)CC[C@]4(C)[C@H]3CC[C@]12C [ergosterol], the “binding to Erg4” value (Erg4) was “bound”, the “shape of binding curve over increasing free ergosterol” value (Ypk1, Hal5, and Rck2) was “saturable curve” and the “number of protein kinases associated with the metabolite” value (103 protein kinases) was 15. For the same compound, the “Ypk1 in vitro kinase activity with increasing concentrations of ergosterol” value (Ypk1 [1]; Ypk1 from erg4Δ strain lacking ergosterol) was “could not be stimulated”, the “Ypk1 in vitro kinase activity with increasing concentrations of ergosterol” value (Ypk1 [1]; Ypk1 from wild type cells grown in the presence of 0.4 mM ergosterol) was “could be stimulated to a similar extent” and the “number of Erg proteins the metabolite co-purified with” value [2] was 5. The “metabolite extracted from Ypk1” value (Ypk1 [3]) was “bound metabolite” and the “binding to Kin4” value (Kin4) was “specific binding”.
